Measurements taken from PMC4552634, “A New Set of Chemical Starting Points with Plasmodium falciparum Transmission-Blocking Potential for Antimalarial Drug Discovery” (PLoS ONE, 2015).
Read-outs that look alike come from different tables or passages of the source.

Legend:
[1] = Cytotoxicity in HepG2 cells (intracellular ATP, ATPlite, 48 h); assay type: cell-based, human; conditions: human, HepG2 cells
[2] = system: luciferase reaction (BacTiter-Glo); assay: Interference assay (inhibition of the BacTiter-Glo luciferase reaction); assay type: biochemical; design: concentration or dose not given beside the values; conditions: ATP interference assay
Procedure: To discard possible false-positive results, we performed an interference assay in parallel. […] […]. The ATP solution was made by dissolving ATP powder (ATP standard from the ATPlite 1 step assay kit, reference 6016731, Perkin Elmer) in culture medium. The positive control used was the Luciferase Inhibitor I Calbiochem (Merck, 119113) at 100 μM.

[3] = system: P. falciparum stage V gametocytes; assay: Gametocytocidal ATP bioluminescence assay (single point 5 μM and 1 μM, dose-response); assay type: cell-based, Plasmodium falciparum; conditions: for Ratio IC50 HepG2/IC50 P. falciparum: IC50 HepG2 divided by IC50 P. falciparum gametocytes
Procedure: Purified stage IV-V gametocytes were obtained as previously described [10]. Single point ATP bioluminescence assay and dose–response of positive hits was determined in accordance with the previously published protocol [10].

[4] = system: P. falciparum asexual stages; conditions: TCAMS data, cited from earlier work
[5] = IC50 per ratio column head, unit inferred, read-out: Cytotoxicity in HepG2
[6] = Plasmodium falciparum, P. falciparum gametocytes, average, read-out: IC50 Pf Gametocytes average, IC50 (µM) average
[7] = asexual stages, read-out: IC50 asexual
[8] = sexual stages (gametocytes), dose-response, read-out: IC50 sexual
[9] = Plasmodium falciparum, sexual stages (gametocytes), dose-response, read-out: IC50 sexual
[10] = P. falciparum asexual stages, read-out: IC50 (µM) Pf asexual stages

## FC(F)(F)c1ccc2[nH]c(-c3ccc(-c4cccc(CN5CCC(CCN6CCCCC6)CC5)c4)cc3)nc2c1 [TCMDC-133941]
[1]; [5]
  IC50 at 48 h: 3.4 µM
[2]
  % Control luminiscence: 100%
[3]
  Ratio IC50 HepG2/IC50 P. falciparum: 6.67
[3]; [6]
  IC50: 0.51 µM
[4]; [7]
  IC50: 0.153 µM

## COc1ccc(CNC(=O)c2cnc3c(O)cccc3c2Nc2cccc(NC(=O)c3ccc(Cl)c(Cl)c3)c2)cc1.O=C(O)C(F)(F)F [TCMDC-139607]
[1]; [5]
  IC50 at 48 h: < 1.56 µM
[2]
  % Control luminiscence: 100%
[3]
  Ratio IC50 HepG2/IC50 P. falciparum: <2.3
[3]; [6]
  IC50: 0.68 µM
[4]; [7]
  IC50: 0.604 µM

## COc1ccc(C[C@H](N)C(=O)N[C@H]2[C@@H](O)[C@H](n3cnc4c(N(C)C)ncnc43)O[C@@H]2CO)cc1 [TCMDC-123493]
[1]; [5]
  IC50 at 48 h: 2.95 µM
[2]
  % Control luminiscence: 100%
[3]
  Ratio IC50 HepG2/IC50 P. falciparum: 5
[3]; [6]
  IC50: 0.56 µM
[3]; [8]
  IC50: 0.563 µM
[4]; [7]
  IC50: 0.174 µM

## S=C(NN=Cc1ccccn1)Nc1ccc2c(c1)OCCO2 [TCMDC-132009]
[1]; [5]
  IC50 at 48 h: 3.28 µM
[2]
  % Control luminiscence: 100%
[3]
  Ratio IC50 HepG2/IC50 P. falciparum: 4
[3]; [6]
  IC50: 0.83 µM
[4]; [7]
  IC50: 1.05 µM

## CCc1ccc(CN2CCC(CNC(=O)c3cc(-c4cccc(F)c4)cs3)C2)cc1 (stereo not drawn) [TCMDC-134432]
[1]; [5]
  IC50 at 48 h: 7.22 µM
[2]
  % Control luminiscence: 100%
[3]
  Ratio IC50 HepG2/IC50 P. falciparum: 6
[3]; [6]
  IC50: 1.26 µM
[3]; [8]
  IC50: 1.26 µM
[4]; [7]
  IC50: 1.36 µM

## Cl.c1ccc2c(NCCCCCCNc3c4ccccc4nc4ccccc34)c3ccccc3nc2c1 [TCMDC-124285]
[1]; IC50 per ratio column head, unit inferred
  IC50: 7 µM
[2]
  % Control luminiscence: 100%
[3]
  Ratio IC50 HepG2/IC50 P. falciparum: 28
[3]; Plasmodium falciparum, read-out: IC50 Pf Gametocytes average, IC50 (µM) average
  IC50: 0.25 µM
[3]; [8]
  IC50: 0.247 µM
[4]; [7]
  IC50: 0.753 µM

## NC1CCN(Cc2ccc(-c3ccc(-c4nc5cc(F)ccc5[nH]4)cc3)cc2)C1 (stereo not drawn) [TCMDC-133872]
[1]; HepG2, 48 h exposure, intracellular ATP, read-out: IC50 (μM) Cytotoxicity HepG2
  IC50 at 48 h: 7 µM
[1]; [5]
  IC50 at 48 h: 7.25 µM
[2]
  % Control luminiscence: 100%
[3]
  Ratio IC50 HepG2/IC50 P. falciparum: 9
[3]; [6]
  IC50: 0.83 µM
[3]; [9]
  IC50: 0.827 µM
[4]; [10]
  IC50: 0.18 µM
[4]; [7]
  IC50: 0.184 µM

## COc1cc2nc(N3CCN(C(=O)c4c(Cl)nsc4-c4ccccc4Cl)CC3)nc(N)c2cc1OC.O=C(O)C(F)(F)F [TCMDC-138186]
[1]; [5]
  IC50 at 48 h: 8.18 µM
[2]
  % Control luminiscence: 100%
[3]
  Ratio IC50 HepG2/IC50 P. falciparum: 38
[3]; [6]
  IC50: 0.22 µM
[3]; [8]
  IC50: 0.215 µM
[4]; [7]
  IC50: 0.534 µM

## COc1cc(-c2cc(-c3ccc(S(C)(=O)=O)cc3)cnc2N)ccc1O [TCMDC-133343]
[1]; [5]
  IC50 at 48 h: > 25 µM
[2]
  % Control luminiscence: 100%
[3]; [6]
  IC50: 1.24 µM
[3]; [9]
  IC50: 1.24 µM
[4]; [10]
  IC50: 0.1 µM
[4]; [7]
  IC50: 0.101 µM

## FC(F)c1nc2ccccc2n1-c1nc(N2CCOCC2)nc(N2CCOCC2)n1 [TCMDC-137004]
[1]; [5]
  IC50 at 48 h: 1.58 µM
[2]
  % Control luminiscence: 98%
[3]
  Ratio IC50 HepG2/IC50 P. falciparum: 0.291
[3]; [6]
  IC50: 5.44 µM
[3]; [8]
  IC50: 5.44 µM
[4]; [7]
  IC50: 0.761 µM

## CC(C)CCNC(=O)c1cnc2c(O)cccc2c1Nc1cccc(NC(=O)c2ccc(F)cc2)c1.O=C(O)C(F)(F)F [TCMDC-139606]
[1]; [5]
  IC50 at 48 h: 5.27 µM
[2]
  % Control luminiscence: 98%
[3]
  Ratio IC50 HepG2/IC50 P. falciparum: 4
[3]; [6]
  IC50: 1.27 µM
[4]; [7]
  IC50: 0.913 µM

## COc1cc2nc(N3CCC(CNCc4ccc(-c5ccc(C(F)(F)F)cc5)cc4)CC3)nc(N)c2cc1OC [TCMDC-138757]
[1]; [5]
  IC50 at 48 h: < 1.56 µM
[2]
  % Control luminiscence: 100%
[3]
  Ratio IC50 HepG2/IC50 P. falciparum: <88
[3]; [6]
  IC50: 0.0177 µM
[3]; [8]
  IC50: 0.018 µM
[4]; [7]
  IC50: 0.087 µM

## Fc1ccc2[nH]c(-c3cccc(-c4ccc(CN5CCC(CCN6CCCCC6)CC5)cc4)c3)nc2c1 [TCMDC-133940]
[1]; [5]
  IC50 at 48 h: 5.2 µM
[2]
  % Control luminiscence: 100%
[3]
  Ratio IC50 HepG2/IC50 P. falciparum: 12
[3]; [6]
  IC50: 0.43 µM
[3]; [8]
  IC50: 0.433 µM
[4]; [7]
  IC50: 0.142 µM

## CCOc1ccc(-c2nonc2NC(=O)c2cccc(Cl)c2)cc1OCC [TCMDC-125200]
[1]; [5]
  IC50 at 48 h: > 25 µM
[2]
  % Control luminiscence: 100%
[3]; [6]
  IC50: 0.84 µM
[4]; [10]
  IC50: 0.15 µM
[4]; [7]
  IC50: 0.147 µM
